Patent publication US7829589B2, “Sulfonamide compounds and uses thereof” (Elixir Pharmaceuticals, Inc., priority 2005, dated 2010)

Target: GHS-R (Homo sapiens, UniProt Q92847)
Experiment: GHS-R antagonist activity (Ki) in a cell based assay
Method: Cell-Based Activity Assays. For example, the ability of the compound to modulate accumulation of a second messenger signaling component downstream of GHS-R can be evaluated. For example, inositol phosphates (IP), as a result of Gq signaling in a mammalian cell, e.g., a Cos-7 cells. Other tissue culture cells, Xenopus oocytes, and primary cells can also be used.
Phosphatidylinositol turnover assay. One day after transfection COS-7 cells are incubated for 24 hours with 5 μCi of [^3H]-myo-inositol in 1 ml medium supplemented with 10% fetal calf serum, 2 mM glutamine and 0.01 mg/ml gentamicin per well. Cells are then washed twice in buffer, 20 mM HEPES, pH 7.4, supplemented with 140 mM NaCl, 5 mM KCl, 1 mM MgSO4, 1 mM CaCl2, 10 mM glucose, 0.05% (w/v) bovine serum; and incubated in 0.5 ml buffer supplemented with 10 mM LiCl at 37° C. for 30 min. For some assays, it is also useful to incubate the cells with adenosine deaminase ADA (200 U/mg, Boehringer Mannheim, Germany) for 30 min in a concentration of 1 U/ml.
After incubation with the compound of interest for 45 min at 37° C., cells are extracted with 10% ice-cold perchloric acid and placed on ice for 30 min. The resulting supernatants are neutralized with KOH in HEPES buffer, and [^3H]-inositol phosphate is purified on Bio-Rad AG 1-X8 anion exchange resin as described. Assays can be run in duplicate, triplicate, etc. […]

Sequence of GHS-R (Q92847 whole entry, species assumed): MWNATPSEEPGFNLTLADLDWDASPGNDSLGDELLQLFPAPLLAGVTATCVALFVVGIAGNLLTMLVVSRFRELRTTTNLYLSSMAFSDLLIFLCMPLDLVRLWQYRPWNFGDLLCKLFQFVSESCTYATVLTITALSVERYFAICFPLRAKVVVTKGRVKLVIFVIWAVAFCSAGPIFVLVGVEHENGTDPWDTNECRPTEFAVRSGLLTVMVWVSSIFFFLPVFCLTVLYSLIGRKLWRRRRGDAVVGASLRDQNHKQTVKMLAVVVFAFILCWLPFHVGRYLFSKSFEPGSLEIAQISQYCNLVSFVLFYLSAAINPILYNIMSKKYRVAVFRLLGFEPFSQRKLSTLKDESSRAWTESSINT

Row | Structure (SMILES) | Ki
1 | CCN(CC)CCCS(=O)(=O)N[C@H](CCc1ccccc1)c1nc(-c2ccc(C#N)c(Cl)c2)n[nH]1 [Compound 126, 3-Diethylamino-propane-1-sulfonic acid {(R)-1-[5-(3-chloro-4-cyano-phenyl)-2H-[1,2,4]triazol-3-yl]-3-phenyl-propyl}-amide] | < 100 nM
2 | CCN(CC)CCCS(=O)(=O)N[C@@H](Cc1ccccc1)c1nc(-c2ccc(OC)cc2)n[nH]1 [Compound 95, 3-Diethylamino-propane-1-sulfonic acid {(S)-1-[5-(4-methoxy-phenyl)-2H-[1,2,4]triazol-3-yl]-2-phenyl-ethyl}-amide] | < 100 nM
3 | CCN(CC)CCS(=O)(=O)N[C@H](COCc1ccccc1)c1nc(-c2ccccc2OC)no1 [Compound 49, 2-Diethylamino-ethanesulfonic acid {(R)-2-benzyloxy-1-[3-(2-methoxy-phenyl)-[1,2,4]oxadiazol-5-yl]-ethyl}-amide] | ≥ 1000 nM
4 | CCN(CC)CCS(=O)(=O)N[C@H](CCc1ccccc1)c1nc(-c2c(C)cccc2C)no1 [Compound 36, 2-Diethylamino-ethanesulfonic acid {(R)-1-[3-(2,6-dimethyl-phenyl)-[1,2,4]oxadiazol-5-yl]-3-phenyl-propyl}-amide] | ≥ 1000 nM
5 | CCN(CC)CCCS(=O)(=O)N[C@H](CCc1ccccc1)c1nc(Cc2nc(C)cs2)n[nH]1 [Compound 133, 3-Diethylamino-propane-1-sulfonic acid {(R)-1-[5-(4-methyl-3H-1lambda*4*-thiazol-2-ylmethyl)-2H-[1,2,4]triazol-3-yl]-3-phenyl-propyl}-amide] | < 100 nM
6 | CCN(CC)CCCS(=O)(=O)N[C@H](CCc1ccccc1)c1nc(-c2ccc(C)cc2)n[nH]1 [Compound 108, 3-Diethylamino-propane-1-sulfonic acid [(R)-3-phenyl-1-(5-p-tolyl-2H-[1,2,4]triazol-3-yl)-propyl]-amide] | 100 to 500 nM
7 | CCN(CC)CCCS(=O)(=O)N[C@H](CCc1ccccc1)c1nc(-c2ccccc2F)n[nH]1 [Compound 29, 3-Diethylamino-propane-1-sulfonic acid {(R)-1-[5-(2-fluoro-phenyl)-2H-[1,2,4]triazol-3-yl]-3-phenyl-propyl}-amide] | < 100 nM
8 | CCN(CC)CCCS(=O)(=O)N[C@H](CCc1ccccc1)c1nc(-c2cc(F)ccc2F)n[nH]1 [Compound 63, 3-Diethylamino-propane-1-sulfonic acid {(R)-1-[5-(2,5-difluoro-phenyl)-2H-[1,2,4]triazol-3-yl]-3-phenyl-propyl}-amide] | 100 to 500 nM
9 | CCN(CC)CCCS(=O)(=O)N[C@H](CCc1ccccc1)c1nc(-c2ccc(F)c(C#N)c2)n[nH]1 [Compound 128, 3-Diethylamino-propane-1-sulfonic acid {(R)-1-[5-(3-cyano-4-fluoro-phenyl)-2H-[1,2,4]triazol-3-yl]-3-phenyl-propyl}-amide] | < 100 nM
10 | CCN(CC)CCCS(=O)(=O)N[C@H](CCc1ccccc1)c1nc(-c2cccc(Br)c2)n[nH]1 [Compound 53, 3-Diethylamino-propane-1-sulfonic acid {(R)-1-[5-(3-bromo-phenyl)-2H-[1,2,4]triazol-3-yl]-3-phenyl-propyl}-amide] | < 100 nM
11 | CCN(CC)CCCS(=O)(=O)N1CCC[C@@H]1c1nc(-c2ccc(OC)cc2)no1 [Compound 144, (R)-Diethyl-(3-{2-[3-(4-methoxy-phenyl)-[1,2,4]oxadiazol-5-yl]-pyrrolidine-1-sulfonyl}-propyl)-amine] | 100 to 500 nM
12 | CCN(CC)CCCS(=O)(=O)N[C@H](COCc1ccccc1)c1nc(-c2ccccc2)n[nH]1 [Compound 25, 3-Diethylamino-propane-1-sulfonic acid [(S)-2-benzyloxy-1-(5-phenyl-2H-[1,2,4]triazol-3-yl)-ethyl]-amide] | 100 to 500 nM
13 | CCN(CC)CCCS(=O)(=O)N[C@H](CCc1ccccc1)c1nc(-c2ccc(OC)cc2F)n[nH]1 [Compound 115, 3-Diethylamino-propane-1-sulfonic acid {(R)-1-[5-(2-fluoro-4-methoxy-phenyl)-2H-[1,2,4]triazol-3-yl]-3-phenyl-propyl}-amide] | < 100 nM
14 | CCN(CC)CCCS(=O)(=O)N[C@H](CCc1ccccc1)c1nc(-c2ccc3nccn3c2)n[nH]1 [Compound 134, 3-Diethylamino-propane-1-sulfonic acid {(R)-1-[5-(1H-imidazo[1,2,-a]pyridin-6-yl)-2H-[1,2,4]triazol-3-yl]-3-phenyl-propyl}-amide] | 100 to 500 nM
15 | CCN(CC)CCS(=O)(=O)N[C@H](CCc1ccccc1)c1nc(-c2ccccc2C)no1 [Compound 13, 2-Diethylamino-ethanesulfonic acid [(R)-3-phenyl-1-(3-o-tolyl-[1,2,4]oxadiazol-5-yl)-propyl]-amide] | 500 to 1000 nM
16 | CCN(CC)CCS(=O)(=O)N[C@H](CCc1ccccc1)c1nc(-c2ccccc2)n[nH]1 [Compound 28, 2-Diethylamino-ethanesulfonic acid [(R)-3-phenyl-1-(5-phenyl-2H-[1,2,4]triazol-3-yl)-propyl]-amide] | < 100 nM
17 | CCN(CC)CCCS(=O)(=O)N[C@H](CCc1ccccc1)c1nc(-c2ccccc2)n[nH]1 [Compound 23, 3-Diethylamino-propane-1-sulfonic acid [(R)-3-phenyl-1-(5-phenyl-2H-[1,2,4]triazol-3-yl)-propyl]-amide] | < 100 nM
18 | CCN(CC)CCCS(=O)(=O)N[C@H](CCc1ccccc1)c1nc(-c2ccc3occc3c2)n[nH]1 [Compound 130, 3-Diethylamino-propane-1-sulfonic acid [(R)-1-(5-benzofuran-5-yl-2H-[1,2,4]triazol-3-yl)-3-phenyl-propyl]-amide] | < 100 nM
19 | CCN(CC)CCCS(=O)(=O)N[C@H](CCc1ccccc1)c1nc(-c2ccc3[nH]ccc3c2)n[nH]1 [Compound 20, 3-Diethylamino-propane-1-sulfonic acid {(R)-1-[5-(1H-indol-5-yl)-2H-{1,2,4]triazol-3-yl]-3-phenyl-propyl}-amide] | < 100 nM
20 | CCN(CC)CCS(=O)(=O)N[C@H](CCc1ccccc1)c1nc(-c2ccc(Br)cc2)no1 [Compound 79, 2-Diethylamino-ethanesulfonic acid {(R)-1-[3-(4-bromo-phenyl)-[1,2,4]oxadiazol-5-yl]-3-phenyl-propyl}-amide] | 100 to 500 nM
21 | CCN(CC)CCCS(=O)(=O)N[C@H](CCc1ccccc1)c1nc(-c2cccc(C)c2)n[nH]1 [Compound 61, 3-Diethylamino-propane-1-sulfonic acid [(R)-3-phenyl-1-(5-m-tolyl-2H-[1,2,4]triazol-3-yl)-propyl]-amide] | < 100 nM
22 | CCN(CC)CCCS(=O)(=O)N[C@H](CCc1ccccc1)c1nc(-c2ccsc2)n[nH]1 [Compound 7, 3-Diethylamino-propane-1 sulfonic acid [(R)-3-phenyl-1-(5-thiophen-3-yl-2H-[1,2,4]triazol-3-yl)-propyl]-amide] | < 100 nM
23 | CCN(CC)CCCS(=O)(=O)N[C@H](CCc1ccccc1)c1nc(Cn2nnc3ccccc32)n[nH]1 [Compound 124, 3-Diethylamino-propane-1-sulfonic acid [(R)-1-(5-benzotriazol-1-ylmethyl-2H-[1,2,4]triazol-3-yl)-3-phenyl-propyl]-amide] | < 100 nM
24 | CCN(CC)CCS(=O)(=O)N[C@H](CCc1ccccc1)c1nc(Cc2c(Cl)cccc2Cl)no1 [Compound 90, 2-Diethylamino-ethanesulfonic acid {(R)-1-[3-(2,6-dichloro-benzyl)-[1,2,4]oxadiazol-5-yl]-3-phenyl-propyl}-amide] | < 100 nM
25 | CCN(CC)CCCS(=O)(=O)N1CCC[C@@H]1c1nc(Cc2ccc(Br)cc2)no1 [Compound 145, (R)-(3-{2-[3-(4-Bromo-benzyl)-[1,2,4]oxadiazol-5-yl]-pyrrolidine-1-sulfonyl}-propyl)-diethyl-amine] | 100 to 500 nM
26 | CCN(CC)CCCS(=O)(=O)N[C@H](CCc1ccccc1)c1nc(CCc2ccccc2)no1 [Compound 97, 3-Diethylamino-propane-1-sulfonic acid [(R)-1-(3-phenethyl-[1,2,4]oxadiazol-5-yl)-3-phenyl-propyl]-amide] | < 100 nM
27 | CCN(CC)CCS(=O)(=O)N[C@H](CCc1ccccc1)c1nc(Cc2cccc(Br)c2)no1 [Compound 92, 2-Diethylamino-ethanesulfonic acid {(R)-1-[3-(3-bromo-benzyl)-[1,2,4]oxadiazol-5-yl]-3-phenyl-propyl}-amide] | < 100 nM
28 | CCN(CC)CCCS(=O)(=O)N[C@H](CCc1ccccc1)c1nc(-c2ccc(C(C)(C)C)cc2)n[nH]1 [Compound 42, 3-Diethylamino-propane-1-sulfonic acid {(R)-1-[5-(4-tert-butyl-phenyl)-2H-[1,2,4]triazol-3-yl]-3-phenyl-propyl}-amide] | ≥ 1000 nM
29 | CCN(CC)CCCS(=O)(=O)N[C@H](CCc1ccccc1)c1nc(-c2ccc([N+](=O)[O-])cc2)n[nH]1 [Compound 65, 3-Diethylamino-propane-1-sulfonic acid {(R)-1-[5-(4-nitro-phenyl)-2H-[1,2,4]triazol-3-yl]-3-phenyl-propyl}-amide] | < 100 nM
30 | CCN(CC)CCCS(=O)(=O)N[C@H](CCc1ccccc1)c1nc(-c2ccc(OC)c(C#N)c2)n[nH]1 [Compound 125, 3-Diethylamino-propane-1-sulfonic acid {(R)-1-[5-(3-cyano-4-methoxy-phenyl)-2H-[1,2,4]triazol-3-yl]-3-phenyl-propyl}-amide] | < 100 nM
